These results are taken from PubChem BioAssay (NCI).

Holding throughout (assay): NCI anticancer screen, dose series, 48 h
Experiment [1] relates to CCRF-CEM leukemia.
The test system of experiment [2] is HCC-2998 colon.
Experiment [3] has as its system HL-60(TB) leukemia.
For experiment [4], the system named is LOX IMVI melanoma.
The test system of experiment [5] is M14 melanoma.
The subject of experiment [6] is MALME-3M melanoma.
Experiment [7] has as its system OVCAR-4 ovarian.
Experiment [8] deals with RPMI-8226 leukemia.
In experiment [9] the test system is SK-MEL-2 melanoma.
The test system of experiment [10] is TK-10 renal.

Several values for one entry are separate records, joined by “and”; a condition that tells them apart may be missing. Equal entries are not always repeated.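 Cultured in 96-well plates, cells were exposed to test compound for 48 hours across five concentrations. Abbreviation: GI50, concentration required for 50% inhibition of growth. At the TGI there is no net growth.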

With `O=C1c2ccn(CCCCN3CCCCC3)c2C(=O)c2c1c(O)c1ccccc1c2O`, the GI50 was 1.95 µM in experiment [1]; 2.95 µM in [2]; 24.5 µM in experiment [3]; 1.72 µM in [4]; 2.46 µM in experiment [5]; 7.58 µM in experiment [6]. Also, the GI50 is 9.48 µM in [7], 2.74 µM in experiment [8], over 100 µM in experiment [9] and 13.6 µM in experiment [10]. Also, the TGI in experiment [1] was 4.61 µM; in [2] it was 9.98 µM; in experiment [3], over 100 µM; in [4] it was 4.3 µM; in [5], 9.7 µM; in experiment [6], 20.4 µM. Moreover, the TGI is over 61.1 µM in [7], 9.29 µM in [8], over 100 µM in [9] and 27.9 µM in experiment [10].

On to `Cc1ccc(C2C3=C(N=c4s/c(=C/c5ccc(Br)cc5)c(=O)n42)c2ccc4ccccc4c2OCC3)cc1` (stereo not given), for which the GI50 in [1] was over 100 µM; in experiment [2], over 100 µM; in [3], over 100 µM; in experiment [4], over 100 µM; in [5], over 100 µM; in experiment [6], 54.9 µM. Also, the GI50 in [7], in experiment [8], in experiment [9] and in experiment [10] was over 100 µM throughout. Besides, the TGI in experiment [1], in experiment [2], in experiment [3], in experiment [4], in experiment [5] and in [6] was over 100 µM in each case. The TGI in experiment [7], in experiment [8], in experiment [9] and in experiment [10] was over 100 µM throughout.

In the case of `CC(=O)/C=C/C1=C(c2cccs2)c2ccccc2CC1`, the GI50 in experiment [1] was 25.3 µM; in experiment [2], 25.8 µM; in experiment [3] it was 20.7 µM; in [4], 17.8 µM; in experiment [5] it was 18.8 µM; in [6], 28.3 µM. The GI50 in experiment [7] was 25.1 µM; in experiment [8] it was 19.9 µM; in experiment [9] it was 25.6 µM; in experiment [10], 32 µM. Moreover, the TGI in experiment [1] was 54.2 µM; in experiment [2], 59.8 µM; in experiment [3], over 100 µM; in experiment [4] it was 34.2 µM; in experiment [5] it was 41.7 µM; in experiment [6], 54.9 µM. Further, the TGI in experiment [7] was 64.9 µM; in experiment [8], 47.6 µM; in experiment [9], 71.2 µM; in experiment [10], over 100 µM.

As to `CS(=O)(=O)CCn1c(=O)c(Oc2ccc(F)cc2F)cc2cnc(NC3CCOCC3)nc21`, the GI50 in [1], in experiment [2], in experiment [3], in experiment [4], in experiment [5] and in [6] was over 25 µM in each case. For the same compound, the GI50 in [7], in experiment [8], in [9] and in [10] was over 25 µM in each case. Further, the TGI in [1], in [2], in experiment [3], in experiment [4], in experiment [5] and in experiment [6] was over 25 µM throughout. Moreover, the TGI in experiment [7], in experiment [8], in experiment [9] and in experiment [10] was over 25 µM each time.

As to `O=C(Nc1ccccc1O)c1ccc(CNC(=O)c2sccc2Nc2ccnc(C(F)(F)F)c2)cc1`, the GI50 in experiment [1] was 1.01 µM; in experiment [2], 10.1 µM; in experiment [3], 6.27 µM; in experiment [4], 5.51 µM; in experiment [5], 7.87 µM; in experiment [6], 2.5 µM. In addition, the GI50 in experiment [7] was 5.35 µM; in experiment [8] it was 3.59 µM; in experiment [9], 6.97 µM; in [10], 4.76 µM. In addition, the TGI in experiment [1] was over 100 µM; in experiment [2], 22.4 µM; in [3], 44.8 µM; in [4], 18.9 µM; in experiment [5], 27.8 µM; in experiment [6], 21.5 µM. Also, the TGI is over 100 µM in experiment [7], 36.2 µM in [8], 28.5 µM in [9] and 22.7 µM in [10].

Turning to `C[C@@H](Oc1ccc2[nH]nc(/C=C/c3cnn(CCO)c3)c2c1)c1c(Cl)cncc1Cl`, the GI50 in [1] was 0.105 µM; in experiment [2], 1.43 µM; in [3], 0.237 µM; in [4] it was 0.0593 µM; in experiment [5], 0.739 µM; in [6], 1.86 µM. Further, the GI50 was 1.89 µM in experiment [7], 1.54 µM in [8], 1.37 µM in [9] and 0.251 µM in [10]. Further, the TGI in experiment [1] amounted to 5 µM; in [2] it was 5.21 µM; in experiment [3], 3.21 µM; in experiment [4], 0.281 µM; in experiment [5] it was 3.11 µM; in [6], 4.68 µM. Further, the TGI in experiment [7] stood at 8.78 µM; in [8], 4.41 µM; in experiment [9], 3.08 µM; in experiment [10], 1.68 µM.

Take `CC(=O)c1cc2c(c3ccsc13)-c1ccccc1CC2`: the GI50 is 21.7 µM in experiment [1]; 8.95 µM in [2]; 30.8 µM in experiment [3]; 32.3 µM in experiment [4]; 27.7 µM in [5]; 15.7 µM in [6]. For the same compound, the GI50 is over 100 µM in experiment [7], 25.8 µM in [8], 26.5 µM in experiment [9] and 25.4 µM in experiment [10]. Further, the TGI in experiment [1] was 62.1 µM; in experiment [2], 27.3 µM; in [3], over 100 µM; in [4] it was over 100 µM; in experiment [5], 89.8 µM; in experiment [6], 55.2 µM. Besides, the TGI in [7] is over 100 µM; in [8] it was 75 µM; in experiment [9] it was 83 µM; in experiment [10], 83 µM.

With `CC(=O)OC1CCC2(C)C(=CCC3C4CCC5(OC6CC(C)CN(C(C)=O)C6C5C)C(C)=C4C(=O)C32)C1` (stereo not given), the TGI in experiment [1] was over 100 µM; in experiment [2] it was 28.8 µM; in experiment [3] it was over 100 µM; in experiment [4], 24.4 µM; in experiment [5], 28.9 µM; in experiment [6], 29.9 µM. In addition, the TGI came to 61.4 µM in experiment [7], 37.6 µM in experiment [8], 31.9 µM in [9] and 56.7 µM in experiment [10].

`CCCCCCCCCCCCCC(=O)C(C)N` (stereo not given): the GI50 in [1] is 8.35 µM; in experiment [2] it was 2.87 µM; in experiment [3], 2.65 µM; in experiment [4] it was 1.88 µM; in experiment [5], 8.66 µM; in experiment [6], 14 µM. Further, the GI50 is 3.9 µM in experiment [7], 6.26 µM in experiment [8], 16 µM in experiment [9] and 3.81 µM in experiment [10]. Besides, the TGI in experiment [1] was 27.2 µM; in [2], 8.2 µM; in [3], 10.4 µM; in experiment [4], 3.66 µM; in experiment [5], 22.1 µM; in experiment [6], 29.3 µM. Besides, the TGI stood at 16.1 µM in experiment [7], 23.7 µM in [8], 31.2 µM in [9] and 13.2 µM in [10].

With `O=C1C(=O)c2ccccc2C(O)=C1CC=C(Cl)Cl`, the GI50 in [1] is 1.57 µM and 4.69 µM; in experiment [2], 15.3 µM and 13.8 µM; in experiment [3], 3.24 µM and 13.3 µM; in [4], 2.68 µM; in experiment [5], 29.4 µM and 9.94 µM; in [6], 16.2 µM and 28.2 µM. The GI50 in [7] is 18.9 µM and 26.9 µM; in experiment [8], 6.53 µM; in experiment [9], 22.1 µM; in experiment [10], 25.7 µM and 20.7 µM. Moreover, the TGI in experiment [1] is 52.1 µM and 162 µM and > 100 µM; in experiment [2], > 80.9 µM and 133 µM and > 100 µM; in [3], 37.8 µM and > 76.6 µM and 56.6 µM; in [4], 30.7 µM and 51.9 µM and > 100 µM; in experiment [5], > 90.7 µM and 108 µM and > 100 µM; in [6] it was 51.8 µM and 42.5 µM and 94.5 µM. The TGI in [7] is 96.9 µM and 135 µM and > 100 µM; in experiment [8] it was 37.4 µM and 65.2 µM and 45.9 µM; in experiment [9], 44.3 µM and 47.1 µM and 63.9 µM; in [10], 98.6 µM and 195 µM and > 100 µM.

For the compound `COc1cc(NCc2ccccc2O)c2ncccc2c1`, the GI50 in [1] was 17 µM; in [2], 42.6 µM; in experiment [3], 18.5 µM; in experiment [4], 17.1 µM; in [5] it was 19 µM; in experiment [6], 14 µM. The GI50 is 13.7 µM in experiment [7], 11.8 µM in experiment [8], 18.1 µM in [9] and 26.5 µM in experiment [10]. In addition, the TGI was over 100 µM in [1]; over 100 µM in [2]; 57 µM in experiment [3]; 67.3 µM in experiment [4]; 53.6 µM in experiment [5]; 44.4 µM in [6]. Further, the TGI was over 100 µM in [7], 79.5 µM in experiment [8], 50.3 µM in [9] and over 100 µM in [10].
